Reference: patent US12492173B2, “Herbicidal substituted N-tetrazolyl aryl carboxamides” (Bayer Aktiengesellschaft, priority 2019, dated 2025)

Columns and labels:
Assay type in all cases: in vivo
Digitaria sanguinalis [1] = experiment: Pre-emergence herbicidal action, DIGSA; settings: dosage 320 g/ha, scored visually after 3 weeks vs untreated controls (100% = plants have died)
Text: 1. Pre-Emergence Herbicidal Action Against Harmful Plants Seeds of monocotyledonous and dicotyledonous weed plants and crop plants are laid out in sandy loam soil in wood-fiber pots and covered with soil. The compounds of the invention, formulated in the form of wettable powders (WP) or as emulsion concentrates (EC), are then applied to the surface of the covering soil in the form of an aqueous suspension or emulsion at a water application rate equating to 600 to 800 l/ha, with addition of 0.2% wetting agent. After the treatment, the pots are placed in a greenhouse and kept under good growth conditions for the trial plants. The damage to the test plants is scored visually after a test period of 3 weeks by comparison with untreated controls (herbicidal activity in percent (%): 100% activity=the plants have died, 0% activity=like control plants). […] The tables below illustrate, in an exemplary manner, the […] herbicidal action of the compounds according to the invention, the herbicidal activity being stated in percent. [table] In the experiments that follow, herbicidal action of numerous inventive compounds and the known compounds that are structurally closest from D1 (WO 2012/028579 A1) and D2 (WO 2018/202535 A1) were compared under the above-specified conditions by the pre-emergence and post-emergence method. The example numbers given in the tables relate to the compounds disclosed in the respective documents. In addition to the compounds disclosed in D1 and D2, the following compounds V-1 to V-14 that are encompassed by D1 or D2 but are not compounds specified therein were used in the comparative experiments: • V-1: 2-(methylsulfanyl)-3-(methylsulfinyl)-N-(1-methyl-1H-tetrazol-5-yl)-4-(trifluoromethyl)benzamide • V-2: 2-(methylsulfanyl)-3-(methylsulfonyl)-N-(1-methyl-1H-tetrazol-5-yl)-4-(trifluoromethyl)benzamide • V-3: 2,3-bis(ethylsulfanyl)-N-(1-methyl-1H-tetrazol-5-yl)-4-(trifluoromethyl)benzamide • V-4: 2-chloro-3-(ethylsulfanyl)-N-(1-methyl-1H-tetrazol-5-yl)-4-(trifluoromethyl)benzamide • V-5: 2-chloro-4-iodo-3-(methylsulfanyl)-N-(1-methyl-1H-tetrazol-5-yl)benzamide • V-6: 2-chloro-4-iodo-3-(methylsulfinyl)-N-(1-methyl-1H-tetrazol-5-yl)benzamide • V-7: 2-chloro-4-iodo-3-(methylsulfonyl)-N-(1-methyl-1H-tetrazol-5-yl)benzamide • V-8: 2-bromo-3-(methylsulfanyl)-N-(1-methyl-1H-tetrazol-5-yl)-4-(trifluoromethyl)benzamide • V-9: 2-bromo-3-(methylsulfinyl)-N-(1-methyl-1H-tetrazol-5-yl)-4-(trifluoromethyl)benzamide • V-10: 2-bromo-3-(methylsulfonyl)-N-(1-methyl-1H-tetrazol-5-yl)-4-(trifluoromethyl)benzamide • V-11: 2-bromo-3-(ethylsulfanyl)-N-(1-methyl-1H-tetrazol-5-yl)-4-(trifluoromethyl)benzamide • V-12: 2-bromo-3-(ethylsulfinyl)-N-(1-methyl-1H-tetrazol-5-yl)-4-(trifluoromethyl)benzamide • V-13: 2-bromo-3-(ethylsulfonyl)-N-(1-methyl-1-1H-tetrazol-5-yl)-4-(trifluoromethyl)benzamide • V-14: 2-cyclopropyl-3-(ethylsulfanyl)-N-(1-methyl-1H-tetrazol-5-yl)-4-(trifluoromethyl)benzamide Herbicidal Pre-Emergence Action: […]

Lolium rigidum = experiment: Post-emergence herbicidal action, LOLRI; settings: dosage 80 g/ha
Method: (§1) [table] 2. Post-Emergence Herbicidal Action Against Harmful Plants Seeds of monocotyledonous and dicotyledonous weed and crop plants are laid out in sandy loam soil in wood-fiber pots, covered with soil and cultivated in a greenhouse under good growth conditions. 2 to 3 weeks after sowing, the test plants are treated at the one-leaf stage. The compounds of the invention, formulated in the form of wettable powders (WP) or as emulsion concentrates (EC), are then sprayed onto the green parts of the plants in the form of an aqueous suspension or emulsion at a water application rate equating to 600 to 800 l/ha, with addition of 0.2% wetting agent. After the test plants have been left to stand in the greenhouse under optimal growth conditions for about 3 weeks, the action of the preparations is assessed visually in comparison to untreated controls (herbicidal action in percent (%): 100% activity=the plants have died, 0% activity=like control plants). […] The tables below illustrate, in an exemplary manner, the post-emergence herbicidal action of the compounds according to the invention, the herbicidal activity being stated in percent. In the experiments that follow, herbicidal action of numerous inventive compounds and the known compounds that are structurally closest from D1 (WO 2012/028579 A1) and D2 (WO 2018/202535 A1) were compared under the above-specified conditions by the pre-emergence and post-emergence method. The example numbers given in the tables relate to the compounds disclosed in the respective documents. In addition to the compounds disclosed in D1 and D2, the following compounds V-1 to V-14 that are encompassed by D1 or D2 but are not compounds specified therein were used in the comparative experiments: • V-1: 2-(methylsulfanyl)-3-(methylsulfinyl)-N-(1-methyl-1H-tetrazol-5-yl)-4-(trifluoromethyl)benzamide • V-2: 2-(methylsulfanyl)-3-(methylsulfonyl)-N-(1-methyl-1H-tetrazol-5-yl)-4-(trifluoromethyl)benzamide • V-3: 2,3-bis(ethylsulfanyl)-N-(1-methyl-1H-tetrazol-5-yl)-4-(trifluoromethyl)benzamide • V-4: 2-chloro-3-(ethylsulfanyl)-N-(1-methyl-1H-tetrazol-5-yl)-4-(trifluoromethyl)benzamide • V-5: 2-chloro-4-iodo-3-(methylsulfanyl)-N-(1-methyl-1H-tetrazol-5-yl)benzamide • V-6: 2-chloro-4-iodo-3-(methylsulfinyl)-N-(1-methyl-1H-tetrazol-5-yl)benzamide • V-7: 2-chloro-4-iodo-3-(methylsulfonyl)-N-(1-methyl-1H-tetrazol-5-yl)benzamide • V-8: 2-bromo-3-(methylsulfanyl)-N-(1-methyl-1H-tetrazol-5-yl)-4-(trifluoromethyl)benzamide • V-9: 2-bromo-3-(methylsulfinyl)-N-(1-methyl-1H-tetrazol-5-yl)-4-(trifluoromethyl)benzamide • V-10: 2-bromo-3-(methylsulfonyl)-N-(1-methyl-1H-tetrazol-5-yl)-4-(trifluoromethyl)benzamide • V-11: 2-bromo-3-(ethylsulfanyl)-N-(1-methyl-1H-tetrazol-5-yl)-4-(trifluoromethyl)benzamide • V-12: 2-bromo-3-(ethylsulfinyl)-N-(1-methyl-1H-tetrazol-5-yl)-4-(trifluoromethyl)benzamide • V-13: 2-bromo-3-(ethylsulfonyl)-N-(1-methyl-1-1H-tetrazol-5-yl)-4-(trifluoromethyl)benzamide • V-14: 2-cyclopropyl-3-(ethylsulfanyl)-N-(1-methyl-1H-tetrazol-5-yl)-4-(trifluoromethyl)benzamide Herbicidal Pre-Emergence Action: […]

Digitaria sanguinalis [2] = experiment: Post-emergence herbicidal action, DIGSA; set-up: key: % herbicidal action: 100 = plants died, 0 = like control; settings: post-emergence, dosage 80 g/ha
Method: as §1

Hordeum murinum = experiment: Post-emergence herbicidal action, HORMU; set-up: key: % herbicidal action: 100 = plants died, 0 = like control; settings: post-emergence, dosage 80 g/ha
Method: as §1

Alopecurus myosuroides = experiment: Pre-emergence herbicidal action, ALOMY; set-up: key: % activity: 100 = plants have died, 0 = like control plants; settings: comparative experiment
In short: (§2)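 Percent damage, assessed visually after 3 weeks and referenced to untreated controls, reflects a pre-emergence treatment. Spray liquid equated to 600 to 800 l/ha with 0.2% wetting agent, applied to the covering soil over seeds in sandy loam.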

Cyperus esculentus = experiment: Pre-emergence herbicidal action, CYPES; set-up: key: % activity: 100 = plants have died, 0 = like control plants; settings: comparative experiment
In short: as §2

Lolium multiflorum = experiment: Post-emergence herbicidal action, LOLMU; set-up: key: % herbicidal action: 100 = plants died, 0 = like control; settings: post-emergence; for herbicidal action LOLMU: dosage 80 g/ha; for Herbicidal action against LOLMU: comparative experiment
Method: as §1

In the case of CC[S+]([O-])Cc1c(C(F)(F)F)ccc(C(=O)Nc2nnnn2C)c1Cl (racemic) [Example 1-300], the “herbicidal activity DIGSA” value (Digitaria sanguinalis [1]) is reported as 100%, the “herbicidal action LOLRI” value (Lolium rigidum) is reported as 90% and the “herbicidal action DIGSA” value (Digitaria sanguinalis [2]) is reported as 100%. The “herbicidal action HORMU” value (Hordeum murinum) was 90%.

In the case of Cn1nnnc1NC(=O)c1ccc(I)c(C[S+](C)[O-])c1Cl (racemic) [Example 1-363], the “herbicidal activity DIGSA” value (Digitaria sanguinalis [1]) is reported as 100%, the “Herbicidal action against ALOMY” value (Alopecurus myosuroides; 20 g of a.i./ha) is reported as 50 and the “herbicidal action LOLRI” value (Lolium rigidum) is reported as 80%. For the same molecule, the “herbicidal action DIGSA” value (Digitaria sanguinalis [2]) was 100% and the “herbicidal action HORMU” value (Hordeum murinum) was 90%.

In the case of CC[S+]([O-])Cc1c(C(F)(F)F)ccc(C(=O)Nc2nnnn2C)c1Br (racemic) [Example 1-384], the “Herbicidal action against CYPES” value (Cyperus esculentus; 80 g of a.i./ha) is reported as 100, the “Herbicidal action against ALOMY” value (Alopecurus myosuroides; 80 g of a.i./ha) is reported as 100 and the “herbicidal action LOLMU” value (Lolium multiflorum) is reported as 90%.

CSc1c(C(=O)Nc2nnnn2C)ccc(C(F)(F)F)c1C[S+](C)[O-] (centres unmarked) [Example 1-162] was tested, and the “Herbicidal action against CYPES” value (Cyperus esculentus; 20 g of a.i./ha) was 70, the “herbicidal action LOLRI” value (Lolium rigidum) was 80% and the “herbicidal action HORMU” value (Hordeum murinum) was 90%.

In the case of CCSCc1c(C(F)(F)F)ccc(C(=O)Nc2nnnn2C)c1Cl [Example 1-299], the “Herbicidal action against CYPES” value (Cyperus esculentus; 20 g of a.i./ha) is reported as 90, the “Herbicidal action against ALOMY” value (Alopecurus myosuroides; 20 g of a.i./ha) is reported as 80 and the “Herbicidal action against LOLMU” value (Lolium multiflorum; 5 g of a.i./ha) is reported as 70. For the same molecule, the “herbicidal action LOLMU” value (Lolium multiflorum) was 90%.

For Cn1nnnc1NC(=O)c1ccc(C(F)(F)F)c(CS(=O)(=O)C2CC2)c1Cl [Example 1-304], the “herbicidal action LOLRI” value (Lolium rigidum) was 80% and the “herbicidal action HORMU” value (Hordeum murinum) was 80%.

In the case of COCCSCc1c(C(F)(F)F)ccc(C(=O)Nc2nnnn2C)c1Cl [Example 1-305], the “herbicidal action LOLRI” value (Lolium rigidum) is reported as 100% and the “herbicidal action HORMU” value (Hordeum murinum) is reported as 90%.

Cn1nnnc1NC(=O)c1ccc(C(F)(F)F)c(CSCC2CC2)c1Cl [Example 1-314] was tested, and the “herbicidal action LOLRI” value (Lolium rigidum) was 90% and the “herbicidal action HORMU” value (Hordeum murinum) was 100%.

CSCc1c(I)ccc(C(=O)Nc2nnnn2C)c1Cl [Example 1-362] was tested, and the “Herbicidal action against CYPES” value (Cyperus esculentus; 20 g of a.i./ha) was 80, the “herbicidal action LOLRI” value (Lolium rigidum) was 80% and the “herbicidal action HORMU” value (Hordeum murinum) was 100%.

CCS(=O)(=O)Cc1c(C(F)(F)F)ccc(C(=O)Nc2nnnn2C)c1Br [Example 1-385] was tested, and the “Herbicidal action against ALOMY” value (Alopecurus myosuroides; 80 g of a.i./ha) was 100, the “Herbicidal action against LOLMU” value (Lolium multiflorum; 20 g of a.i./ha) was 50 and the “herbicidal action LOLMU” value (Lolium multiflorum) was 80%.

With CCn1nnnc1NC(=O)c1ccc(C(F)(F)F)c(C[S+]([O-])CC)c1Cl (centres unmarked) [Example 2-300] the “herbicidal activity DIGSA” value (Digitaria sanguinalis [1]) was 100%, the “herbicidal action LOLRI” value (Lolium rigidum) was 80% and the “herbicidal action DIGSA” value (Digitaria sanguinalis [2]) was 100%. For the same molecule, the “herbicidal action HORMU” value (Hordeum murinum) was 90%.

In the case of CCn1nnnc1NC(=O)c1ccc(C(F)(F)F)c(CSCCOC)c1Cl [Example 2-305], the “herbicidal action LOLRI” value (Lolium rigidum) is reported as 80% and the “herbicidal action HORMU” value (Hordeum murinum) is reported as 100%.

In the case of CCCn1nnnc1NC(=O)c1ccc(C(F)(F)F)c(C[S+](C)[O-])c1SC (centres unmarked) [Example 3-162], the “herbicidal action LOLRI” value (Lolium rigidum) is reported as 80% and the “herbicidal action HORMU” value (Hordeum murinum) is reported as 90%.

CCS(=O)(=O)c1c(C(F)(F)F)ccc(C(=O)Nc2nnnn2C)c1Br [Example V-13, 2-bromo-3-(ethylsulfonyl)-N-(1-methyl-1-1H-tetrazol-5-yl)-4-(trifluoromethyl)benzamide, reference compound] was tested, and the “Herbicidal action against ALOMY” value (Alopecurus myosuroides; 80 g of a.i./ha) was 0 and the “Herbicidal action against LOLMU” value (Lolium multiflorum; 20 g of a.i./ha) was 0.
